Experimental findings from patent publication EP4620955A1, “MC4R ANTAGONIST COMPOUND, PHARMACEUTICAL COMPOSITION AND PHARMACEUTICAL USE THEREOF” (Changchun Genescience Pharmaceutical Co., Ltd., priority 2022, dated 2024) are described below.

One data set deals with T1, MC4R (Homo sapiens, UniProt P32245).
T1 construct: expressed in transfected cells; host or cells: flipin-293-MC4 (Flp-In 293 host, hygromycin selection)
T1 sequence (P32245 whole entry): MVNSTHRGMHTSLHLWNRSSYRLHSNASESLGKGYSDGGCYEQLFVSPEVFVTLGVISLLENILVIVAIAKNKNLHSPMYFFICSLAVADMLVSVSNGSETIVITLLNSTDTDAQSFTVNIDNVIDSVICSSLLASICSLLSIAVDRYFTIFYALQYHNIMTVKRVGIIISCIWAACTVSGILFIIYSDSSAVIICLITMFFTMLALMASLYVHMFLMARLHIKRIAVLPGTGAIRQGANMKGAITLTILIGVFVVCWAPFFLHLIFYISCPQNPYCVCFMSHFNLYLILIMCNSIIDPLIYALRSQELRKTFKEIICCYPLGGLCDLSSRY
In words: Assay of MC4R antagonist activity in cells in vitro (cAMP assay, Melanotan I stimulation). Format: cell-based. As to conditions: flipin-293-MC4 cell line, Melanotan I as agonist. Here is the method: Test Example 1: Assay of MC4R antagonist activity in cells in vitro
a. Experimental consumables:
b. Experimental steps • ✔ Cell line: flipin-293-MC4 • ✔ Cell culture medium: DMEM, 10% fetal bovine serum, 1 × PS, 200 µg/mL hygromycin • ✔ Experimental buffer: HBSS, 20 mM HEPES, 0.1% BSA, 500 µM IBMX • ✔ Positive compound: ML00253764 c. Antagonist detection • 1. Digested cells were suspended in the experimental buffer, and then inoculated into the 384-well cell culture plate. • 2. The to-be-detected compound was added to the cell plate, and incubated at 37°C for 10 min. • 3. Melanotan I was added to the cell plate, and incubated at 37°C for 30 min. • 4. Two detection reagents EU cAMP tracer and ulight anti camp were thawed and diluted with a lysis solution in the kit. • 5. The diluted detection reagents were added to the cell plate and incubated at room temperature for 1 h. • 6. Reading was carried out by Envision. (Excitation light: 340 nm, emission light: 615 nm and 665 nm) d. Data analysis • 1. %Inhibition calculation: %Inhibition = (Signalcmpd−SignalAve_VC)/(SignalAve_PC−SignalAve_VC) × 100. [formula] • Signalcmpd: compound signal value; • SignalAve_VC: negative control signal value; • SignalAve_PC: positive control signal value; • %inhibition: inhibition percentage. • 2. Calculation of IC50 of the compound using the nonlinear fitting equation in GraphPad: Y = Bottom + (Top−Bottom)/(1+10^(∧)((LogIC50−X)×HillSlope)) [formula] X: logarithmic value of the concentration of the compound; Y: inhibition percentage
Background: Changes in cAMP serve as a functional read-out for many G protein-coupled receptors.
A word on the IC50: it is the midpoint of a concentration-inhibition curve. As to `COc1cc([C@@H](C)C(=O)N2C[C@@H](Nc3ccc(-c4nccc(C(F)F)n4)c(C)n3)C3(CC3)C2)c(Cl)cn1` [Compound 156, (R)-2-(5-chloro-2-methoxypyridine-4-yl)-1-((S)-7-((5-(4-(difluoromethyl)pyrimidine-2-yl)-6-methylpyridine-2-yl)amino)-5-azaspiro[2.4]hept-5-yl)propan-1-one], the IC50 amounted to 1.85 nM.

The molecule `COc1cc([C@@H](C)C(=O)N2C[C@@H](Nc3ccc(-c4ncn(C)n4)c(C)n3)C3(CC3)C2)c(F)cn1` [Compound 136, (2R)-2-(5-fluoro-2-methoxypyridine-4-yl)-1-[(7S)-7-{[6-methyl-5-(1-methyl-1H-1,2,4-triazole-3-yl)pyridine-2-yl]amino}-5-azaspiro[2.4]heptane-5-yl]propan-1-one] yielded a half-maximal inhibitory concentration (IC50) of 1.28 nM.

Regarding `COc1ccc2nc(N[C@@H]3CN(C(=O)[C@H](C)c4cc(OC)ncc4Cl)CC34CC4)nc(C)c2c1` [Compound 118], the IC50 was 3.75 nM.

Consider `COc1cc([C@@H](C)C(=O)N2CC[C@H](Nc3ccc(-c4cn(C)nn4)c(C)n3)C2)c(Cl)cn1` [Compound 195, (R)-2-(5-chloro-2-methoxypyridine-4-yl)-1-((S)-3-((6-methyl-5-(1-methyl-1H-1,2,3-triazol-4-yl)pyridine-2-yl)amino)pyrrolidine-1-yl)propan-1-one], for which the IC50 came out at 0.99 nM.

Molecule `COc1cc([C@@H](C)C(=O)N2C[C@@H](Nc3ccc(-c4cnn(C)n4)c(C)n3)C3(CC3)C2)c(Cl)cn1` [Compound 166, (R)-2-(5-chloro-2-methoxypyridine-4-yl)-1-((S)-7-((6-methyl-5-(2-methyl-2H-1,2,3-triazol-4-yl)pyridine-2-yl)amino)-5-azaspiro[2.4]hept-5-yl)propan-1-one] displayed an IC50 of 4.03 nM.

In turn, `COc1cc([C@@H](C)C(=O)N2C[C@@H](C)[C@H](Nc3ccc(-c4ncccn4)c(C)n3)C2)c(F)cn1` [Compound 051-2, (R)-2-(5-fluoro-2-methoxypyridine-4-yl)-1-((3R,4S)-3-methyl-4-((6-methyl-5-(pyrimidine-2-yl)pyridine-2-yl)amino)pyrrolidine-1-yl)propan-1-one] gave a 50% inhibitory concentration (IC50) of 10.6 nM.

The molecule `COc1cc([C@@H](C)C(=O)N2C[C@@H](Nc3ccc(-c4nc(C(F)F)n(C)n4)c(C)n3)C3(CC3)C2)c(F)cn1` [Compound 119, (R)-1-((S)-7-((5-(5-(difluoromethyl)-1-methyl-1H-1,2,4-triazole-3-yl)-6-methylpyridine-2-yl)amino)-5-azaspiro[2.4]heptane-5-yl)-2-(5-fluoro-2-methoxypyridine-4-yl)propan-1-one] returned an IC50 of 1.71 nM.

The molecule `COc1cc([C@@H](C)C(=O)N2C[C@@H](Nc3ccc(-c4ncccn4)c(C)n3)C(C)(C)C2)c(Cl)cn1` [Compound 199, (R)-2-(5-chloro-2-methoxypyridine-4-yl)-1-((S)-3,3-dimethyl-4-((6-methyl-5-(pyrimidine-2-yl)pyridine-2-yl)amino)pyrrolidine-1-yl)propan-1-one] returned a half-maximal inhibitory concentration (IC50) of 366 nM.

In turn, `COc1cc([C@@H](C)C(=O)N2C[C@@H](Nc3ccc(-c4cn(C)c(OC(F)F)n4)c(C)n3)C3(CC3)C2)c(Cl)cn1` [Compound 186, (R)-2-(5-chloro-2-methoxypyridine-4-yl)-1-((S)-7-((5-(2-(difluoromethoxy)-1-methyl-1H-imidazol-4-yl)-6-methylpyridine-2-yl)amino)-5-azaspiro[2.4]hept-5-yl)propan-1-one] had an IC50 of 0.55 nM.

In turn, `COc1cc([C@@H](C)C(=O)N2C[C@@H](Nc3ccc(-c4cn(C)cn4)c(C)n3)C3(CC3)C2)c(F)cn1` [Compound 150, (R)-2-(5-fluoro-2-methoxypyridine-4-yl)-1-((S)-7-((6-methyl-5-(1-methyl-1H-imidazol-4-yl)pyridine-2-yl)amino)-5-azaspiro[2.4]hept-5-yl)propan-1-one] displayed a 50% inhibitory concentration (IC50) of 1.84 nM.

`COc1cc([C@@H](C)C(=O)N2C[C@@H](Nc3ccc(-c4cn5c(n4)CCC5)c(C)n3)C3(CC3)C2)c(F)cn1` [Compound 187, (R)-1-((S)-7-((5-(6,7-dihydro-5H-pyrrolo[1,2-a]imidazol-2-yl)-6-methylpyridine-2-yl)amino)-5-azaspiro[2.4]hept-5-yl)-2-(S-fluoro-2-methoxypyridine-4-yl)propan-1-one] displayed an IC50 of 3.42 nM.

In turn, `COc1cc([C@@H](C)C(=O)N2C[C@@H](Nc3ccc(-c4nc(C)n(C)n4)c(C)n3)C3(CC3)C2)c(Cl)cn1` [Compound 141, (2R)-2-(5-chloro-2-methoxypyridine-4-yl)-1-[(7S)-7-{[5-(1,5-dimethyl-1H-1,2,4-triazole-3-yl)-6-methylpyridine-2-yl]amino}-5-azaspiro[2.4]heptane-5-yl]propan-1-one] had an IC50 of 2.88 nM.

As for `COc1cc([C@@H](C)C(=O)N2CC[C@H](Nc3ccc(-c4ncc(C#N)cn4)c(C)n3)C2)c(F)cn1` [Compound 110, 2-(6-(((S)-1-((R)-2-(5-fluoro-2-methoxypyridine-4-yl)propionyl)pyrrolidine-3-yl)amino)-2-methylpyridine-3-yl)pyrimidine-5-nitrile], the concentration for half-maximal inhibition (IC50) came to 26.2 nM.

Turning to `COc1cc([C@@H](C)C(=O)N2C[C@@H](Nc3ccc(-c4cn(C)c(C(C)(C)O)n4)c(C)n3)C3(CC3)C2)c(F)cn1` [Compound 181, (R)-2-(5-fluoro-2-methoxypyridine-4-yl)-1-((S)-7-((5-(2-(2-hydroxypropan-2-yl)-1-methyl-1H-imidazol-4-yl)-6-methylpyridine-2-yl)amino)-5-azaspiro[2.4]hept-5-yl)propan-1-one], the IC50 was determined as 1.59 nM.

For the molecule `COc1cc([C@@H](C)C(=O)N2C[C@@H](Nc3ccc(-c4cn5c(n4)C(F)(F)CC5)c(C)n3)C3(CC3)C2)c(F)cn1` [Compound 189, (R)-1-((S)-7-((5-(7,7-difluoro-6,7-dihydro-5H-pyrrolo[1,2-a]imidazol-2-yl)-6-methylpyridine-2-yl)amino)-5-azaspiro[2.4]hept-5-yl)-2-(5-fluoro-2-methoxypyridine-4-yl)propan-1-one], the half-inhibitory concentration (IC50) stood at 2.25 nM.

Turning to `COc1ccc2nc(N[C@@H]3CN(C(=O)[C@H](C)c4cc(OC)ncc4F)CC34CC4)nc(C)c2c1` [Compound 115, (R)-2-(5-fluoro-2-methoxypyridine-4-yl)-1-((S)-7-((6-methoxy-4-methylquinazoline-2-yl)amino)-5-azaspiro[2.4]heptane-5-yl)propan-1-one], the IC50 came out at 2.78 nM.

For the molecule `COc1cc([C@@H](C)C(=O)N2C[C@@H](Nc3ccc(-c4cn(C(F)F)nn4)c(C)n3)C3(CC3)C2)c(Cl)cn1` [Compound 196, (R)-2-(5-chloro-2-methoxypyridine-4-yl)-1-((S)-7-((S-(1-(difluoromethyl)-1H-1,2,3-triazol-4-yl)-6-methylpyridine-2-yl)amino)-5-azaspiro[2.4]hept-5-yl)propan-1-one], the half-inhibitory concentration (IC50) came out at 4.88 nM.

As to `COc1cc([C@@H](C)C(=O)N2C[C@@H](Nc3ccc(-c4cn(C)c(C(C)(C)O)n4)c(C)n3)C3(CC3)C2)c(Cl)cn1` [Compound 182, (R)-2-(5-chloro-2-methoxypyridine-4-yl)-1-((S)-7-((5-(2-(2-hydroxypropan-2-yl)-1-methyl-1H-imidazol-4-yl)-6-methylpyridine-2-yl)amino)-5-azaspiro[2.4]hept-5-yl)propan-1-one], the IC50 amounted to 0.86 nM.

Tested on in the next data set: not listed separately
In words: Pharmacokinetic study on the tested compound in SD male rats. The class given is in vivo. Particulars: IV 1 mpk/PO 2 mpk. The method, then:
On the day of administration, the tested compound was prepared with 5% DMSO + 5% Solutol + 90% Saline as a solvent into a solution for administration for use.
The solution for administration was administered to an intravenous injection IV group at a dose of 1 mg/kg in a concentration of 0.2 mg/mL. The solution for administration was administered to an oral gavage PO group at a dose of 2 mg/kg in a concentration of 0.2 mg/mL. The animals in the PO group were required to fast overnight in advance, drink water freely, and be fed 4 hours after administration. The IV group was not required to fast.
The animals were weighed before administration. On the day of administration, the solution was IV/PO-administered once in an administration amount calculated based on the weight. In the IV group, blood was collected from veins at 0.083 h, 0.25 h, 0.5 h, 1.0 h, 2.0 h, 4.0 h, 8.0 h, and 24 h after administration. In the PO group, blood was collected from veins at 0.25 h, 0.5 h, 1.0 h, 2.0 h, 4.0 h, 6.0 h, 8.0 h, and 24 h after administration. The amount of blood collected was about 0.20 mL. K2-EDTA was used in blood collection tubes as an anticoagulant. The collected blood sample was centrifuged (centrifugation conditions: 6800 g, 6 min, 2°C to 8°C) within 1 h to obtain plasma. The to-be-tested sample was stored in a refrigerator at -80°C before analysis.
The concentration of the tested compound in the plasma of the SD male rats was detected by the validated LC-MS/MS method.
In turn, `COc1cc([C@@H](C)C(=O)N2CC[C@H](Nc3ccc(-c4cn(C)c(OC(F)F)n4)c(C)n3)C2)c(F)cn1` [Compound 197, (R)-1-((S)-3-((5-(2-(difluoromethoxy)-1-methyl-1H-imidazol-4-yl)-6-methylpyridine-2-yl)amino)pyrrolidine-1-yl)-2-(5-fluoro-2-methoxypyridine-4-yl)propan-1-one] came in with an F of 11.1%.

The data set is the same for the next values; noted with them: Sprague-Dawley (SD), rat, plasma, IV 1 mpk/PO 2 mpk.
The AUC is the area under the concentration-time curve, a measure of exposure. High values mean high exposure, low ones low exposure. By Cmax is commonly meant the maximum level reached in the sampled fluid or tissue. The half-life is the time in which the quantity being followed falls by half. A high value points to slow decline. Molecule `COc1cc([C@@H](C)C(=O)N2CC[C@H](Nc3ccc(-c4cn(C)c(OC(F)F)n4)c(C)n3)C2)c(F)cn1` [Compound 197, (R)-1-((S)-3-((5-(2-(difluoromethoxy)-1-methyl-1H-imidazol-4-yl)-6-methylpyridine-2-yl)amino)pyrrolidine-1-yl)-2-(5-fluoro-2-methoxypyridine-4-yl)propan-1-one] gave an exposure (AUC) of 43 ng·h/mL, a peak concentration (Cmax) of 35 ng/mL, a clearance of 86.9 mL/min/kg and a half-life of 1.2 h.
